The text below walks through data of ChEMBL document CHEMBL4392856, “Synthesis of diphenoxyadamantane alkylamines with pharmacological interest” (Bioorg Med Chem Lett, 2019).

Values after ≈ are worked out from the molar mass of the structure shown.

Experiment [1] relates to Trypanosoma brucei. Description: Antitrypanosomal activity against Trypanosoma brucei 427 bloodstream forms assessed as inhibition of parasite growth incubated for 48 hrs by Alamar blue assay. The format is functional, organism-based. The note with it: Trypanosoma brucei, 427, 48 h.
In experiment [2] the test system is L6. Description: Cytotoxic activity against rat L6 cells assessed as reduction in cell viability incubated for 6 days by Alamar blue assay. The format is cell-based. To be noted: L6, 144 h.
Experiment [3] deals with Mycobacterium tuberculosis. Kind of experiment: Antimycobacterial activity against […] assessed as inhibition of parasite growth incubated for 6 days by REMA method. The format is functional.
Experiment [4] deals with Mycobacterium tuberculosis. Kind of experiment: Antimycobacterial activity against Mycobacterium tuberculosis H37Rv assessed as inhibition of parasite growth incubated for 6 days by REMA method. The note with it: 144 h. The format is functional.
Experiment [5] has as its system Mycobacterium tuberculosis. Kind of experiment: Antimycobacterial activity against Mycobacterium tuberculosis assessed as inhibition of parasite growth at 1 ug/ml incubated for 6 days by REMA method relative to untreated control. To be noted: 144 h. The format is functional.

For `CSc1ccc(OCc2ncc([N+](=O)[O-])n2C)cc1` [FEXINIDAZOLE], in experiment [1], the IC50 (as a rule, the concentration that gives 50% inhibition) was 1000 nM.
Regarding `CCCCCCNCC(O)COc1ccc(C23CC4CC(C2)CC(c2ccc(OCC(O)CNCCCCCC)cc2)(C4)C3)cc1` (stereo not given), the figures for the IC50 in experiment [2] and in experiment [1] were 450 nM and 205 nM, respectively. Besides, the Imax in experiment [3] is reported as 0%. Further, the IC90 (usually the concentration at which the effect reaches the 90% level) in experiment [1] was determined as 272 nM. In experiment [4], the MIC – broadly, the smallest concentration in the dilution series that meets the test's criterion for growth inhibition – was 0.084 µM (≈ 0.0533 µg/mL). Besides, the inhibition (in general, the change of the read-out against control, counted positive when it falls) at 1 µg/mL in experiment [5] came to 0%.
For `OC(COc1ccc(C23CC4CC(C2)CC(c2ccc(OCC(O)CN5CCCCC5)cc2)(C4)C3)cc1)CN1CCCCC1` (stereo not given), the IC50 in experiment [2] was found to be 270 nM; in experiment [1] it was 250 nM. The Imax in experiment [3] came out at 99%. Further, the IC90 in experiment [1] was 292 nM. In addition, the minimal inhibitory concentration (MIC) in experiment [4] stood at 10.4 µM (≈ 6.27 µg/mL). Also, the inhibition at 1 µg/mL in experiment [5] came to 0.17%.
On to `CN1CCN(CC(O)COc2ccc(C34CC5CC(C3)CC(c3ccc(OCC(O)CN6CCN(C)CC6)cc3)(C5)C4)cc2)CC1` (stereo not given), for which the 50% inhibitory concentration (IC50) came to 260 nM in experiment [2] and 176 nM in experiment [1]. In addition, the Imax in experiment [3] was 95%. Also, in experiment [1], the IC90 was determined as 207 nM. In experiment [4], the MIC turned out to be 20.5 µM (≈ 13 µg/mL). Also, in experiment [5], the inhibition at 1 µg/mL was 5%.
Consider `CCCCNCC(O)COc1ccc(C23CC4CC(C2)CC(c2ccc(OCC(O)CNCCCC)cc2)(C4)C3)cc1` (stereo not given), for which the IC50 in experiment [2] is 550 nM. Further, the Imax in experiment [3] turned out to be 100%. In addition, in experiment [1], the IC50 is 93 nM and the concentration for an effect of 90% (IC90) is 110 nM. Also, the MIC in experiment [4] is 4.14 µM (≈ 2.4 µg/mL). Moreover, the inhibition at 1 µg/mL in experiment [5] is 50%.
For `CN1CCN(CCOc2ccc(C3(c4ccc(OCCN5CCN(C)CC5)cc4)C4CC5CC(C4)CC3C5)cc2)CC1`, the concentration for half-maximal inhibition (IC50) in experiment [2] was determined as 330 nM. The Imax in experiment [3] was found to be 100%. Moreover, in experiment [1], the concentration for half-maximal inhibition (IC50) is 51 nM and the concentration for an effect of 90% (IC90) was 70 nM. Further, in experiment [4], the MIC is 4.59 µM (≈ 2.63 µg/mL). The inhibition at 1 µg/mL in experiment [5] was found to be 0.04%.
For `CN(C)CC(O)COc1ccc(C23CC4CC(C2)CC(c2ccc(OCC(O)CN(C)C)cc2)(C4)C3)cc1` (stereo not given), the IC50 in experiment [2] worked out at 290 nM. In addition, in experiment [1], the half-inhibitory concentration (IC50) came to 171 nM and the concentration for an effect of 90% (IC90) was 235 nM.
With `OCCN(CCO)CC(O)COc1ccc(C2(c3ccc(OCC(O)CN(CCO)CCO)cc3)C3CC4CC(C3)CC2C4)cc1` (stereo not given), the minimal inhibitory concentration (MIC) in experiment [4] came to 24.3 µM (≈ 15.6 µg/mL).
For `CN1CCN(CC(O)COc2ccc(C3(c4ccc(OCC(O)CN5CCN(C)CC5)cc4)C4CC5CC(C4)CC3C5)cc2)CC1` (stereo not given), the IC50 in experiment [2] turned out to be 540 nM; in experiment [1], 114 nM. In experiment [1], the concentration for an effect of 90% (IC90) worked out at 138 nM. Besides, in experiment [4], the minimal inhibitory concentration (MIC) was 8.5 µM (≈ 5.38 µg/mL).
As for `CC[C@@H](CO)NCCN[C@@H](CC)CO` [ETHAMBUTOL], the Imax in experiment [3] amounted to 0%. Also, the MIC in experiment [4] was 0.11 µM (≈ 0.0225 µg/mL). Also, in experiment [5], the inhibition at 1 µg/mL turned out to be 0%.
Regarding `CO[C@H]1/C=C/O[C@@]2(C)Oc3c(C)c(O)c4c(O)c(c(/C=N/N5CCN(C)CC5)c(O)c4c3C2=O)NC(=O)/C(C)=C\C=C\[C@H](C)[C@H](O)[C@@H](C)[C@@H](O)[C@@H](C)[C@H](OC(C)=O)[C@@H]1C` [RIFAMPIN], in experiment [3], the Imax came to 54%. In experiment [4], the MIC stood at 0.001 µM (≈ 0.000823 µg/mL). Moreover, in experiment [5], the inhibition at 1 µg/mL worked out at 13%.
